Test results published in patent US20090300800A1, “D-Amino Acid a Selectable Marker for Barley (Hordeum Vulgare L.) Transformation” (BASF Plant Science GmbH, priority 2005, published 2009).
Values joined by “and” are separate entries in the source; they are usually repeats but may differ in a detail not shown here. Equal entries are not always repeated.

Assays:
wild-type plants = conditions: plants not expressing D-amino acid oxidase; cited from earlier work
[1] = test system: immature embryos / embryogenic callus from Golden Promise; experiment: Agrobacterium-mediated barley transformation with pRLM167 or pRLM205 (dsdA, dao1, PAT), PAB media, selection on D-Serine or bialaphos; format: cell-based, barley (Hordeum vulgare L.)
[2] = test system: immature embryos from spring barley variety Golden Promise; experiment: In vitro germination bioassay of immature embryos on medium with D-serine or D-alanine; format: cell-based, barley (Hordeum vulgare L.); conditions: for Immature Embryos (%) germinated in vitro: scored after 14 days; for concentration lethal in the bioassay: immature embryo germination; for concentration above which seedlings were susceptible to the selection: seedlings from embryos isolated without endosperms
Description: In order to establish effective concentrations of D-Serine and D-Alanine on inhibiting growth of tissue cultured barley cells, a bioassay system using immature embryos was applied. Immature embryos from spring barley variety Golden Promise 2 mm in length were dissected onto germination PAW-5 hormone free medium with D-serine or D-alanine in range of concentrations between 0 and 5 mM and maintained at 25° C. with a 16 h photoperiod. The number of germinated embryos with well-developed shoots and brunched roots were scored after 14 days.

[3] = test system: immature embryos / embryogenic callus from Golden Promise; experiment: Agrobacterium-mediated barley transformation with pRLM166 (dsdA), PAW media, selection on D-Serine; format: cell-based, barley (Hordeum vulgare L.); conditions: construct pRLM166, selection 5 mM D-Serine
[4] = construct pRLM167, selection 5 mM D-Serine or 5 mg/l bialaphos
[5] = 0.5 mM in PAW-5 hormone free medium
[6] = 1 mM in PAW-5 hormone free medium
[7] = 2 mM in PAW-5 hormone free medium
[8] = 5 mM in PAW-5 hormone free medium

| SMILES | toxicity to wild-type plants (wild-type plants) | TE % (Transformation Efficiency, % of transgenic plants out of the explants) [1, 4] | TE % (Transformation Efficiency, % of transgenic plants out of the explants) ([1]; construct pRLM205 (dao1), selection 5 mM D-Serine) | Immature Embryos (%) germinated in vitro [2, 5] | Immature Embryos (%) germinated in vitro [2, 6] | Immature Embryos (%) germinated in vitro [2, 7] | Immature Embryos (%) germinated in vitro [2, 8] | concentration lethal in the bioassay [2] | concentration above which seedlings were susceptible to the selection [2] | TE % (Transformation Efficiency, % of transgenic plants out of the explants) [3] |
| --- | --- | --- | --- | --- | --- | --- | --- | --- | --- | --- |
| CC[C@@H](C)[C@@H](N)C(=O)O [D-isoleucine] | not toxic to wild-type plants | – | – | – | – | – | – | – | – | – |
| N[C@H](CO)C(=O)O [D-serine] | highly phytoptoxic to plants | 4.6% | 3.6% | 49% | 17% | 0% | 0% | 2 mM | higher than 2 mM | 2.2% and 2.1% |
| C[C@@H](N)C(=O)O [D-alanine] | highly phytoptoxic to plants | – | – | 37% | 0% | 0% | 0% | 1 mM | > 1 mM | – |
| CC(C)[C@@H](N)C(=O)O [D-valine] | not toxic to wild-type plants | – | – | – | – | – | – | – | – | – |
| C[C@H](NC(=O)[C@H](C)NC(=O)[C@@H](N)CCP(C)(=O)O)C(=O)O [bialaphos] | – | 3.4% | – | – | – | – | – | – | – | – |
